Laboratory results published in US9458137B2, “Substituted indol-5-ol derivatives and their therapeutical applications” (NantBioScience, Inc., priority 2012, dated 2016).

Tests used:
[1] = system: TT human Thyroid carcinoma xenograft; assay: TT thyroid carcinoma xenograft; type: in vivo, nude mouse; settings: TT xenograft
Text: (§1) This example assesses NTW-3475's anti-tumor activity using a scid mouse xenograft models for leukemias and nude mouse xenograft models of endometrial, pancreatic and thyroid carcinomas. NTW-3475 combination therapy was also studied in murine xenografts.
FIGS. 36-38 depict the results of various concentrations of NTW-3456 on a nude mouse/xenograft the TT cell model of thyroid carcinoma.

MLCK(h) = assay: Kinase panel activity; type: biochemical, human; settings: 0.1 μM, ATP Km
Method: (§2) The effect of NTW-3475 on kinase activity was tested for a wide range of kinases and is shown in Table 2: Summary Sheet, Activity % ATP Concentration: Km

c-RAF(h) = assay: Kinase panel activity; type: biochemical, human; settings: 0.1 μM, ATP Km
Method: as §2

CK1(y) = assay: Kinase panel activity; type: biochemical, yeast; settings: 0.1 μM, ATP Km
Method: as §2

[2] = system: human MIAPaCa-2 pancreatic carcinoma xenograft; assay: MIAPaCa-2 pancreatic carcinoma xenograft; type: in vivo, athymic nude-Faxn1 mice
Method: The objective of the third study was to evaluate antitumor activities of novel multiple-kinase inhibitor NTW-3475 in human MIAPaCa-2 pancreatic carcinoma xenograft in athymic nude-Faxn1 mice.
Four animals were randomly assigned to study groups. Each animal was weighed, and then injected subcutaneously in the left and right flank area with 0.1 ml of 5.0×10^7 MIAPaCa-2 cells per mL.
Each test or control animal was on a 5-day on, two-day off for two cycles treatment schedule with negative control vehicle, positive control Abraxane at 20 mg/kg or 25, 50 mg/kg of NTW-3475. Tumor growth was measured with a digital hand held caliper twice weekly (once tumor emerges) prior to the first dosing and then two to three times weekly until euthanized.
FIGS. 42-44 depict the results of various concentrations of NTW-3456 on a nude mouse/xenograft the MIAPaCa-2 model of pancreatic carcinoma.
FIGS. 45 and 46 depict the results of various concentrations of NTW-3456, with or without Abraxane on a MiaPaCa-2 model of pancreatic carcinoma.

[3] = system: human MV411 human acute myelogenous leukemia (AML) xenograft; type: in vivo, SCID mice; settings: 25, 50 mg/kg, 5-day on, two-day off for two cycles; female SCID mice
Method: The objective of the first study was to evaluate antitumor activities of the novel multiple-kinase inhibitor NTW-3475 against human MV411 human acute myelogenous leukemia (AML) xenograft model in female SCID mice.
Four or six animals were randomly assigned to each study group. Each animal was injected subcutaneously in the left and right flank area with 0.1 ml of 1.0×10^8 MV411 cells per mL
Each test or control animal was placed on a 5-day on, two-day off for two cycles of vehicle negative control or 25, 50 mg/kg of NTW-3475. Tumor growth was measured with a digital hand held caliper twice weekly (once tumor emerges) prior to the first dosing and then two to three times weekly until euthanized. Animals were weighed prior to tumor cell injection, prior to dosing, two to three times weekly with tumor growth measurements, and prior to euthanasia.
FIGS. 27-32 depict the results of various concentrations of NTW-3456 on tumor growth in scid mouse/xenograft model of AML using MV411 cells. […] This invention is characterized as it is here was a correlation between the inhibition of the pFLT3 kinase and growth control.

[4] = system: human tumor cell lines of the cancer screening panel; assay: in vitro antiproliferation, NCI 60 cancer cell line panel (SRB); type: cell-based; settings: 48 h
Method: NTW-3475 was also tested for its antiproliferative potential using cell lines from the NCI 60 cancer cell line panel.
The human tumor cell lines of the cancer screening panel are grown in RPMI 1640 medium containing 5% fetal bovine serum and 2 mM L-glutamine. For a typical screening experiment, cells are inoculated into 96 well microtiter plates in 100 μL at plating densities ranging from 5,000 to 40,000 cells/well depending on the doubling time of individual cell lines. After cell inoculation, the microtiter plates are incubated at 37° C., 5% CO2, 95% air and 100% relative humidity for 24 h prior to addition of experimental drugs. […]
Following drug addition, the plates are incubated for an additional 48 h at 37° C., 5% CO2, 95% air, and 100% relative humidity. […] Bound stain is subsequently solubilized with 10 mM trizma base, and the absorbance is read on an automated plate reader at a wavelength of 515 nm. […] Using the seven absorbance measurements [time zero, (Tz), control growth, (C), and test growth in the presence of drug at the five concentration levels (Ti)], the percentage growth is calculated at each of the drug concentrations levels. Percentage growth inhibition is calculated as: [(Ti-Tz)/(C-Tz)]×100 for concentrations for which Ti>/=Tz [(Ti-Tz)/Tz]×100 for concentrations for which Ti<Tz.
Three dose response parameters are calculated for each experimental agent. […]

[5] = system: AN3 human endometrial carcinoma carcinoma xenograft; assay: AN3 endometrial carcinoma xenograft; type: in vivo, nude mouse; settings: AN3 xenograft
Text: as §1
FIGS. 39-41 depict the results of various concentrations of NTW-3456 on the AN3 nude mouse/xenograft model of endometrial carcinoma.

Activity % (MLCK(h)): 110%
Activity % (c-RAF(h)): 94%
Activity % (CK1(y)): 100%
Compound: Cc1cc2c(F)c(Oc3nc(Nc4cc(C5CC5)[nH]n4)cc(N4CCN(C)CC4)n3)cc(F)c2[nH]1 [NTW-3475]
anti-tumor effect [1]: anti-tumor effect
anti-tumor effect against pancreatic carcinoma cells ([2]; 25, 50 mg/kg, 5-day on, two-day off for two cycles): strong anti-tumor effect
anti-tumor effect of the combination ([2]; in combination with Abraxane): anti-tumor effect
anti-tumor effect against AML [3]: strong anti-tumor effect
antiproliferative activity [4]: strong antiproliferative activity in at least 13 of the 16 cell lines studied
anti-tumor effect [5]: anti-tumor effect
